How the values were obtained:
Aβ1-42 = assay: In vitro cleavage assay of Aβ1-42 by purified CatB (SELDI-TOF MS, western blot, electron microscopy); assay type: biochemical
Protocol: (§1) Aβ1-42 and Aβ1-40 were from rPeptide (Athens, Ga.). Aβ powders lyophilized with hexafluoroisopropanol were reconstituted in dry dimethylsulfoxide (Sigma) at a concentration of 5 mM. Aggregated Aβ1-42 was prepared based on protocols developed in previous studies (Dahlgren et al., 2002; Lambert et al., 1998). For protofibrillar Aβ1-42 preparations, DMEM/F-12 was added to achieve a final peptide concentration of 100 μM and incubated at 4° C. for 24 h. For fibrillar conditions, 10 mM HCl was added to achieve a final peptide concentration of 100 μM and incubated for 24 h at 37° C. For unaggregated conditions (fresh Aβ), the 5 mM Aβ in […] was diluted directly into cell-culture medium. For Aβ1-40 aggregation, Aβ1-40 was reconstituted in H2O at a concentration of 5 mg/ml, and incubated for one week at 37° C.
Aβ1-42 and Aβ1-40 samples were characterized by negative-staining electron microscopy (JEOL 1230, Peabody, Mass.). Samples were prepared with “matured” carbon-coated grids and 2% potassium phosphotungstate, pH 6.5, using the drop method (Hamilton et al., 1980), and examined at 80 KV with a condenser aperture of 200 μm and an objective aperture of 50 μm. Images were obtained with a Gatan Ultrascan USC1000 digital camera (Gatan, Warrendale, Pa.).
(§2) Different amounts of purified CatB from human liver (Sigma) were preactivated with 4 mM cysteine at room temperature for 5 min in assay buffer, pH 6.0 or 7.0 after adjustment (Cathepsin B Activity Assay Kit, EMD Biosciences). Then, 20 ng of fresh, protofibrillar, or fibrillar Aβ1-42 was added and incubated at 37° C. for 120 min. All samples were run in parallel with and without the specific CatB inhibitor CA074. CatB-induced peptidase cleavage of Aβ1-42 was detected with mass spectrometry. Briefly, 5 μl of the reaction mixture was applied to an NP-20 normal-phase chip (Ciphergen Biosystems, Fremont, Calif.), and the spots were washed with water and air-dried. Twenty percent α-cyano-4-hydroxycinnamic acid in 50% acetonitrile, 0.5% trifluoroacetic acid (2×0.5 μl) was applied, and the chips were allowed to dry. Samples were analyzed in a PBS ITC SELDI-TOF mass spectrometer (Ciphergen) as an average of 160 shots for each spot. The system was calibrated daily with All-in-One peptide standards (Ciphergen) and synthetic Aβ1-42.
(§3) The products were also analyzed by western blotting on acid-urea gels with an anti-Aβ antibody (3D6) as described (DeMattos et al., 2001; Esposito et al., 2004) or on a Tricine SDS-PAGE. Briefly, 10 μl of the reaction mixture were resolved on 16% tricine gels and transferred to nitrocellulose membranes. Membranes were labeled with 21F12 (1:2000, Elan Pharmaceuticals), an antibody specific for Aβ1-42, to detect low MW Aβ1-42 oligomers. Since 21F12 was unable to detect higher MW assemblies, 3D6 (1:2000, Elan) was also used for immunoblotting. After incubation with an HRP-conjugated sheep anti-mouse IgG (1:2000; Amersham) secondary antibody, blots were developed with an ECL system (Perkin Elmer).

CatB in N2A cells = assay: N2A cells treated with Aβ peptides: CatB mRNA (quantitative RT-PCR) and CatB activity; assay type: cell-based, murine; conditions: 20 μM; for CatB enzymatic activities / CatB mRNA levels: nonaggregated peptide, 24 h
Protocol: (§4) Unless otherwise noted, all cell culture supplies, medium, and antibiotics were from Invitrogen (Carlsbad, Calif.). The murine neuronal cell line N2A was maintained in Dulbecco's modified Eagle's medium (DMEM) with 10% heat-inactivated fetal bovine serum (FBS), 100 U/ml penicillin G, and 100 μg/ml streptomycin at 37° C. in a humidified atmosphere containing 5% CO2. Before treatment, the medium was replaced with Neurobasal A medium supplemented with N2, and the cells were treated with fresh Aβ1-42 or Aβ1-40 at various concentrations for 24 h.
as §1
(§5) CatB activities in N2A cells or in hippocampus of hAPP mice and their littermate controls were quantified with the Innozyme Cathepsin B Activity Assay Kit (EMD Biosciences), according to the manufacturer's instructions. Cells or hippocampi were lysed in lysis buffer in the absence of proteinase inhibitors, preactivated with 4 mM cysteine, and incubated with the synthetic substrate Z-Arg-Arg AMC at 37° C. for 30 min. Released free AMC was determined fluorometrically as above. The enzymatic activities inhibited by CA074 were defined as CatB-specific activities. Protein concentrations were measured with the BCA protein assay kit (Pierce) and used to normalize CatB activities.
Expression of CatB was measured by quantitative RT-PCR. Total RNA in N2A cells was isolated with Trizol reagent (Invitrogen). After treatment with RNase-free DNase (Ambion) for 30 min at 37° C., total RNA (60 ng/ml) was reverse-transcribed with random hexamers and oligo d(T) primers. The expression of CatB relative to GAPDH was determined with SYBR green dye chemistry and an ABI Prism 7700 sequence detector (Applied Biosystems, Foster City, Calif.), as recommended by the manufacturer. Primer quality was verified by dissociation curve analysis, the slopes of standard curves, and reactions without RT. The following primers were used: mouse CatB (forward 5′-[…]-3′ (SEQ ID NO:7); reverse 5′-[…]-3′ (SEQ ID NO:8)) and mouse GAPDH (forward 5′-[…]-3′ (SEQ ID NO:9); reverse 5′-[…]-3′ (SEQ ID NO:10)).

[1] = test system: cathepsin B activity in neuronal cells (N2a); assay: CatB activity assay in N2a cells treated with indomethacin; assay type: cell-based, murine; conditions: indomethacin 25 μM-75 μM, 18-24 h
Protocol: as §4, §5
Neurobiatoma cell N2a cells were treated with indomethacin (25 μM-75 μM) for 18-24 h before being harvested for CatB activity assay.

[2] = molecular target: T1, purified CatB from human liver (Homo sapiens, UniProt P07858); assay: Inhibition of CatB-induced Aβ1-42 cleavage by CA074 in the in vitro cleavage assay; assay type: biochemical
T1 construct: purified CatB from human liver (Sigma); purchased Sigma; host or cells: human liver (tissue-purified)
Protocol: as §2, §3

Molecule: CatB: purified CatB from human liver (Sigma), preactivated with cysteine
- amounts of high-molecular-weight Aβ assemblies (Aβ1-42; Tricine SDS-PAGE, CatB 1-2 μg/ml): marked decrease
- levels of low-MW Aβ1-42 oligomers and monomers (Aβ1-42; Tricine SDS-PAGE, antibody specific for Aβ1-42): also reduced
- proteolytic products from fresh (nonaggregated) Aβ1-42 (Aβ1-42; cell-free, pH 6.0, CatB 100-2500 ng/ml, SELDI-TOF): dose-dependent generation of Aβ1-40, Aβ1-38, and Aβ1-33
- amount of fibrillar structures of preformed Aβ1-42 fibrils (Aβ1-42; electron microscopy): did reduce the amount of fibrillar structures
- ability to cleave Aβ, especially nonaggregated (fresh) Aβ (Aβ1-42; neutral pH (~7.0)): markedly reduced
- cleavage of protofibrillar Aβ1-42 (Aβ1-42; pH 6.0): cleaved by CatB as efficiently as nonaggregated preparations

Molecule: Aβ1-42: amyloid-β peptide 1-42 from rPeptide
- CatB enzymatic activities (CatB in N2A cells): markedly increased
- CatB mRNA levels (CatB in N2A cells): markedly increased

Molecule: COc1ccc2c(c1)c(CC(=O)O)c(C)n2C(=O)c1ccc(Cl)cc1 [indomethacin]
- CatB activity [1]: significant increase in CatB activity in a dose-dependent manner

Molecule: CCCNC(=O)[C@H]1O[C@@H]1C(=O)N[C@H](C(=O)N1CCC[C@H]1C(=O)O)[C@@H](C)CC [CA074]
- effect of the inhibitor on CatB-induced decrease of Aβ assemblies ([2]; Tricine SDS-PAGE): significantly diminished such effects
- effect of the inhibitor on CatB-induced reduction of Aβ1-42 fibrils ([2]; electron microscopy): inhibition with CA074
- CatB-induced truncations of Aβ1-42 in the presence of the inhibitor ([2]; pH 6.0, SELDI-TOF): No truncations occurred

Molecule: Aβ1-40: amyloid-β peptide 1-40 from rPeptide; tested nonaggregated and preaggregated
- CatB enzymatic activities (CatB in N2A cells): little or no effect
- CatB mRNA levels (CatB in N2A cells): little or no effect
- CatB activity (CatB in N2A cells; preaggregated peptide): modest but significant increase

Reference: patent publication US8388953B2, “Method of increasing cathepsin B-induced cleavage of amyloid-β peptides” (The J. David Gladstone Institutes, priority 2006, dated 2013)
